Source: article PMC10076643, “Design, synthesis and anticancer activity studies of 3-(coumarin-3-yl)-acrolein derivatives: Evidenced by integrating network pharmacology and vitro assay” (Frontiers in Pharmacology, 2023)

Assays:
[1] = test system: PI3K in KB cells; assay: Western blot, PI3K; format: cell-based, human; details: 0.40, 0.80, 1.60 μM, 24 h
Excerpt: (§1) Based on the results of network pharmacology, the key proteins related to PI3K/AKT pathway were detected by Western blotting to explore the antitumor mechanism of compound 6e. […] Such an inconsistency might be due to a compensatory increase in PI3K level after the reduction of AKT phosphorylation level. Additionally, the active-caspase 3 protein, anti-apoptosis protein Bcl-2 and pro-apoptosis protein Bax were further analyzed. Caspase-3 normally exists in the cytoplasm as zymogen. During the early stage of apoptosis, caspase-3 (32 KD) is cleaved to the active 17-kD caspase-3 fragment, which is responsible for morphological and biochemical changes in apoptosis. Bcl-2 and Bax are the […] located on the mitochondrial membrane and capable of controlling the MMP (ΔΨm) and the activation of caspase cascade.
(§2) A total of 4 × 10^5 KB cells were seeded into 6-well and grown for overnight. Then the cells adherent to the wall were treated with compound 6e in different concentrations (0, 0.40, 0.80, 1.60 μM) for 24 h. After that, cells were collected, SDS lysate, 100X protease inhibitor and 50X phosphorylation inhibitor were added in a certain proportion to lyse the cells. The protein content was determined by BCA reagent (Beyotime, China) according to the standard curve. […]

[2] = test system: KB cells; assay: Transwell invasion assay (Matrigel); format: cell-based, human; details: 2 IC50, 48 h
Description: Transwell invasion assay was carried out to evaluate the effect of compound 6e on KB cell invasion.
For invasion assay, the transwells (8 μm pore size, Corning Incorporated) were precoated with 40 μL Matrigel for 2 h at 37°C to achieve solidification. KB cells were harvested and resuspended in serum-free medium, treated with different concentrations of compound 6e (0.5 IC50, IC50, 2 IC50), and added into the upper wells of the transwell chamber at density of 1×10^5 cells/200 μL. Then 600 μL of RPMI-1640 containing 10% FBS was added into each lower chamber. After 48 h, the invaded cells in the lower champers were fixed with paraformaldehyde for 1 h and stained with crystal violet solution for 2 h. The non-invading cells in the upper chambers of the transwell plates were scraped away by cotton swabs. Next, the chambers were washed with PBS. The invaded cells were then imaged with the inverted fluorescence microscope (Leica DMi8, Germany) and counted with ImageJ software for three independent fields randomly.

[3] = test system: KB cells; assay: Transwell migration assay; format: cell-based, human; details: 2 IC50, 48 h
Description: Wound healing assay and transwell assay were performed to investigate the effect of compound 6e on the migratory capability of KB cells.
Initially, KB cells (5×10^4 cells/well) were suspended in 200 μL of the FBS-free medium. Each upper chamber contained the vehicle and various concentrations of compound 6e (0.5 IC50, IC50, 2 IC50). Each lower chamber was filled with 600 μL of medium containing 10% FBS. After incubation at 37°C for 48 h, the cells upon the transwell membrane were removed with a cotton tip. The cells trapped on the bottom side of the membrane were fixed with methanol for 1 h and stained with crystal violet solution for 2 h. Subsequently, the chambers thoroughly washed with PBS. The migrated cells were then imaged with the inverted fluorescence microscope (Leica DMi8, Germany) and counted with ImageJ software for three independent fields randomly.

[4] = test system: AKT phosphorylation in KB cells; assay: Western blot, pAKT/AKT; format: cell-based, human; details: increased concentration (0.40, 0.80, 1.60 μM), 24 h
Excerpt: as §1, §2

[5] = test system: A549 (human lung cancer cell line); assay: MTT antiproliferative assay, A549; format: cell-based; details: Homo sapiens, A549; MTT, 72 h
Excerpt: (§3) All the synthesized compounds were screened for in vitro antiproliferative activity against four human cancer cell lines A549 (human lung cancer cell line), KB (human oral epidermoid carcinoma cell line), Hela (human cervical carcinoma cell line), MCF-7 (human breast cancer cell line) and two human normal cell lines HUVEC (human umbilical vein endothelial cell) and LO2 (human normal hepatocytes) through the 3-(4,5-dimethyl-2-thiazolyl)-2,5-diphenyl-2-H-tetrazolium bromide (MTT) assay.
(§4) Non-small-cell lung cancer (A549), oral epidermoid carcinoma (KB), cervical cancer (Hela) and breast cancer (MCF-7) cells were purchased from the American Type Culture Collection (ATCC, America). Human umbilical vein endothelial cell (HUVEC) and human normal hepatocytes (LO2) cells were provided by Guangzhou Medical University (Guangzhou, China). A549 and KB cells were cultured in RMPI-1640 medium (Gibco, America). Hela, MCF-7 and LO2 cells were cultured in DMEM medium (Gibco, America). HUVEC cells were cultured in Ham’s F-12K medium (Gibco, America). All the mediums were supplemented with 10% fetal bovine serum (FBS) (BI, State of Israel), 100 U/mL penicillin and 100 μg/mL streptomycin (Gibco, America), and all the cells were incubated in a sterile incubator at 37°C in an environment of 5% CO2. The tested compounds were dissolved in dimethyl sulfoxide (DMSO) at a concentration of 10 mM, and then diluted into different concentration of solutions by culture medium. The final concentration of DMSO was <0.01% (v/v) in all drug treatment groups to avoid the toxicity in the biological system. Untreated cells were used as a blank control and 5-fluorouracil treated cells were used as a positive control.
(§5) The incubated tumor cells were planted into 96-well plates (4×10^3 cells/well). After 24 h, the cells were adherent to the wall and treated with the compound 6e in different concentrations (0.78, 1.56, 3.12, 6.25, 12.50, 25.00, and 50.00 μM) for 72 h. Afterwards, the medium was supplemented with 10 µL MTT solution. After 4 h, the culture medium was removed and 100 µL DMSO was added. The absorbance was determined at the wavelength of 540 nm and 655 nm using a microplate reader (BioTek Epoch, America). The results were collected from three independent experiments. The IC50 was then calculated by using GraphPad Prism Software (version 7.0) and non-linear regression (curve fit).

[6] = test system: Hela (human cervical carcinoma cell line); assay: MTT antiproliferative assay, Hela; format: cell-based; details: 72 h
Excerpt: as §3, §4, §5

[7] = test system: KB (human oral epidermoid carcinoma cell line); assay: MTT antiproliferative assay, KB; format: cell-based
Excerpt: as §3, §4, §5

In the case of `O=CC=C(Cl)c1cc2ccc(OCc3ccccc3)cc2oc1=O` [Compound 6e, 3-(7-(Benzyloxy)-2-oxo-2H-chromen-3-yl)-3-chloroacrylaldehyde], the melting point is reported as 223 to 225 °C, the “relative PI3K level among the control and treatment groups” value [1] is reported as “not significantly different” and the “KB cell invasion reduced” value [2] is reported as “more than 64%”. For the same compound, the “number of migration cells reduced compared with the control group” value [3] was “approximately 93%”, the pAKT/AKT ratios [4] was “remarkably decreased” and the IC50 [5] was 7400 ± 200 nM. The IC50 [6] was 1820 ± 220 nM, the IC50 ([7]; Homo sapiens, MTT, 72 h) was 390 ± 70 nM and the “antiproliferative activity higher than 5-FU” value ([7]; KB cells, relative to 5-FU) was 15 fold. For the same compound, the “IC50 against KB cells lower than that of HUVECs (selectivity)” value ([7]; KB vs HUVEC) was 65 fold and the “IC50 against KB cells lower than that of LO2 cells (selectivity)” value ([7]; KB vs LO2) was 129 fold.
